Consider 1 substance from patent US7419667B2, “Drug for cancer therapy” (Morinaga Milk Industry Co. Ltd., priority 2004, dated 2008).

The series has as its system human Burkitt lymphoma Raji cells. In words: Test Example 5: effect on cytotoxic activity of rituximab and complement, PI flow cytometry (FIG. 1). The class given is cell-based. The following applies: rituximab + 10% human normal serum (AB type), sample 1.0 mg/ml final, 1 hour. The source says:
The lactoferrin hydrolysate mixture prepared in Preparation Example 1 was used as Sample A, and the lactoferrin hydrolyzed peptide (lactoferrin partial peptide) prepared in Preparation Example 2 was used as Sample B. Moreover, as control samples, commercially available bovine lactoferrin (Morinaga Milk Industry Co., Ltd.) was used as Control A, and protamine sulfate was used as Control B.
Raji cells in the logarithmic growth phase were used as target cells. Raji cells collected by centrifugation of a cell suspension were suspended in fresh culture broth (RPMI 1640, 10% FCS), counted and then added to a 24-well plate in an amount of 1.0×10^5 cells/well. To each well, rituximab ([…]) and 1.0 mg/ml as a final concentration of Sample A, Sample B, Control A or Control B (or Medium [culture broth] instead of the sample) were added, and then human normal serum (AB type) was added at a final concentration of 10%. Then, the cells were cultured in a CO2 incubator for 1 hour, and PI (propidium iodide, 1 mg/ml) was added during the last 15 minutes of the culture. […] The Raji cells that died during the culture were counted by analyzing the suspension with a flow cytometer (FACScan) utilizing the fact that dead cells are positive in the nuclear staining with PI.
In this test, the cytotoxic activity was calculated in accordance with the following equation. […]

In the case of protamine sulfate [Control B], the “cytotoxic activity [number of dead cells (%)] relative to Medium (culture broth)” value is “such increase of the activity was not observed”.
